TGI data for 12 compounds are collected here from PubChem BioAssay (NCI).

Some test systems named below: DLD-1 colon; DMS 114 small cell lung; DMS 273 small cell lung; HOP-18 NSCLC; KM20L2 colon; P388/ADR leukemia; SN12K1 renal; LXFL 529 NSCLC; RXF-631 renal; XF 498 CNS.
Assay in all cases: NCI tumour cell line growth inhibition, 48 h

Molecules are shown by their SMILES.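 Results reflect a 48-hour exposure of cells in 96-well plates to compound at five concentrations. TGI marks complete inhibition of growth.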

With `Cc1c2cc[n+](CCN3CCCCC3)cc2c(C)c2c1[nH]c1ccc(O)cc12`, the TGI is 49.6 µM in the assay on DLD-1 colon; 21.6 µM in the assay with DMS 114 small cell lung; 17.1 µM with DMS 273 small cell lung; 37 µM with HOP-18 NSCLC; 34.5 µM with KM20L2 colon; 31.8 µM in the assay on P388/ADR leukemia. In the assay with SN12K1 renal, this compound displayed a TGI of 20.3 µM.

With `N#CC(c1ccccc1)c1nc2ccc(=N)cc-2n(O)c1C(C#N)c1ccccc1` (stereo not given), the TGI in the assay with DLD-1 colon, with DMS 273 small cell lung, in the assay with HOP-18 NSCLC, with KM20L2 colon, with LXFL 529 NSCLC and in the assay on RXF-631 renal was over 100 µM throughout. Besides, the TGI with XF 498 CNS was over 100 µM.

For the compound `CCOC(=O)C1=C(O)C(=O)c2ccsc2C1=O`, the TGI in the assay with DLD-1 colon, in the assay with DMS 114 small cell lung, in the assay on DMS 273 small cell lung, in the assay with HOP-18 NSCLC and in the assay on KM20L2 colon was over 100 µM each time.

As to `CC12NN=NC1C(=O)NC2=O` (stereo not given), the TGI in the assay on DLD-1 colon, with DMS 114 small cell lung, in the assay with DMS 273 small cell lung, in the assay on KM20L2 colon and in the assay on LXFL 529 NSCLC was over 100 µM throughout.

As for `COc1cc(OC)c(/C=C2\N=C(C)N(Nc3nnc(NN4C(=O)/C(=C/c5c(OC)cc(OC)cc5OC)N=C4C)c4ccccc34)C2=O)c(OC)c1`, the TGI with DLD-1 colon, with DMS 114 small cell lung, in the assay with DMS 273 small cell lung, in the assay with HOP-18 NSCLC, with KM20L2 colon and in the assay with LXFL 529 NSCLC was over 100 µM in each case.

`Cn1c(/C=C(\O)c2ccc(Cl)cc2)nc2ccccc21`: the TGI was over 100 µM with DLD-1 colon; 95.6 µM in the assay with KM20L2 colon; over 100 µM with LXFL 529 NSCLC; over 100 µM in the assay with RXF-631 renal; over 100 µM in the assay on XF 498 CNS.

`CCO[C@]12C[C@H](OC)[C@@]3(O)CC(C1[C@H]3OCc1ccccc1)C13C4C2[C@H](OC)C1[C@](COC)(CN4CC)[C@H](O)C[C@@H]3OC` (stereo not given in full): the TGI with DLD-1 colon, in the assay on DMS 114 small cell lung, in the assay on DMS 273 small cell lung, in the assay on KM20L2 colon, in the assay with LXFL 529 NSCLC and with XF 498 CNS was over 100 µM in each case.

For `CC1=C(N2CC2)C(=O)c2nc3n(c2C1=O)CCC3OC(=O)CCl` (stereo not given), the TGI in the assay with DLD-1 colon was 1.58 µM; in the assay with DMS 114 small cell lung, 0.512 µM; with DMS 273 small cell lung, 0.128 µM; with HOP-18 NSCLC, 0.178 µM; in the assay with KM20L2 colon it was 0.547 µM; in the assay with LXFL 529 NSCLC, 0.227 µM. In the assay with XF 498 CNS, this compound came in with a TGI of 0.0954 µM.

Regarding `CCOC1(COP(=O)(OCc2ccccc2)OCc2ccccc2)COC(COP(=O)(OCc2ccccc2)OCc2ccccc2)(OCC)CO1` (stereo not given), the TGI in the assay on DLD-1 colon, with DMS 273 small cell lung, in the assay on HOP-18 NSCLC, in the assay on KM20L2 colon, with LXFL 529 NSCLC and in the assay on RXF-631 renal was over 100 µM each time. For the same compound, in the assay on XF 498 CNS, the TGI was over 100 µM.

Regarding `CC(=O)C1=CSC2[C@H](NC(=O)Cc3ccccc3)C(=O)N2C1C(=O)OC(c1ccccc1)c1ccccc1` (stereo not given in full), the TGI in the assay with DLD-1 colon, with DMS 114 small cell lung, in the assay on DMS 273 small cell lung, in the assay with LXFL 529 NSCLC, with RXF-631 renal and in the assay on XF 498 CNS was over 100 µM in each case.

Turning to `C=C1CC2OC2(C(=O)O[C@H]2CCC3[C@@H]4CCC5=CC(=O)CC[C@]5(C)C4CC[C@@]32C)C1=O` (stereo not given in full), the TGI came to 16.5 µM in the assay with DLD-1 colon; 10.4 µM in the assay on DMS 114 small cell lung; 9.15 µM with DMS 273 small cell lung; 12.7 µM in the assay with HOP-18 NSCLC; 16.2 µM with KM20L2 colon; 6.08 µM with LXFL 529 NSCLC. In addition, the TGI with XF 498 CNS was determined as 9.92 µM.

Regarding `CN(CCO)c1nc2c(c(=O)[nH]1)CCC2`, the TGI with DLD-1 colon, with DMS 114 small cell lung, with DMS 273 small cell lung, with HOP-18 NSCLC, with KM20L2 colon and in the assay with LXFL 529 NSCLC was over 100 µM throughout. Also, the TGI with XF 498 CNS is over 100 µM.
